Tests used:
[1] = tested on: HCV replicons (NS3-NS5B regions of HCV type 1b) in Huh-7 luc/neo cells; test: HCV replicon assay (Huh-Luc cells, luciferase readout); assay type: cell-based; conditions: Hepatitis C virus, Huh-7, 72 h, HCV type 1b replicon, three days incubation, luciferase activity
From the text: The compounds of formula (I) were examined for activity in the inhibition of HCV RNA replication in a cellular assay. […] The cellular assay was based on a bicistronic expression construct, as described by Lohmann et al. (1999) Science vol. 285 pp. 110-113 with modifications described by Krieger et al. (2001) Journal of Virology 75: 4614-4624, in a multi-target screening strategy. In essence, the method was as follows.
The assay utilized the stably transfected cell line Huh-7 luc/neo (hereafter referred to as Huh-Luc). This cell line harbors an RNA encoding a bicistronic expression construct comprising the wild type NS3-NS5B regions of HCV type 1b translated from an Internal Ribosome Entry Site (IRES) from encephalomyocarditis virus (EMCV), preceded by a reporter portion (FfL-luciferase), and a selectable marker portion (neo^R, neomycine phosphotransferase). […]
The replicon cells were plated in 384 well plates in the presence of the test and control compounds which were added in various concentrations. Following an incubation of three days, HCV replication was measured by assaying luciferase activity (using standard luciferase assay substrates and reagents and a Perkin Elmer ViewLux™ ultraHTS microplate imager). […] The inhibitory activity of the compound on luciferase activity was monitored on the Huh-Luc cells, enabling a dose-response curve for each test compound.

[2] = target: T1, full-length hepatitis C NS3 protease enzyme with NS4A cofactor (HCV NS3/4A protease complexes) (Hepatitis C virus genotype 1a, UniProt P27958); test: HCV NS3/4A protease inhibition assay (enzymatic); assay type: biochemical; conditions: full-length NS3 1 nM, 25 μM NS4A cofactor, 0.5 μM depsipeptide substrate, 30° C., competitive inhibition model
T1 construct: full-length hepatitis C NS3 protease enzyme
T1 sequence (P27958 1027-1657, one chain of several): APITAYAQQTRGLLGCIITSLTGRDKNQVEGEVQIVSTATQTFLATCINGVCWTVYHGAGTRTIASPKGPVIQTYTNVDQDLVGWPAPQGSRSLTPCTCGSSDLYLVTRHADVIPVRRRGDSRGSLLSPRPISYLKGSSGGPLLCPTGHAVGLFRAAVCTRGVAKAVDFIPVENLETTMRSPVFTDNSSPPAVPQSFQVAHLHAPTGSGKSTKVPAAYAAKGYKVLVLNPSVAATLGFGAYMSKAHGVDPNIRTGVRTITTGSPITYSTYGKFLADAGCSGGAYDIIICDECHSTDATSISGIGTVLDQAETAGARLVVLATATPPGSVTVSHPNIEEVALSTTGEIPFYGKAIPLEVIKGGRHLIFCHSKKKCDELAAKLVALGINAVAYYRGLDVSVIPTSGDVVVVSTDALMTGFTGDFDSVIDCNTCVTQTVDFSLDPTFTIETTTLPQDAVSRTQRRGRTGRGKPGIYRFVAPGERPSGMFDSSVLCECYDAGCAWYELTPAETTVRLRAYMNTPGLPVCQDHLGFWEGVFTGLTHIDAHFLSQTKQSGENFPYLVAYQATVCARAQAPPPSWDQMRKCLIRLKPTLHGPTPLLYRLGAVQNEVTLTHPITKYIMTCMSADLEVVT
Method: [Landro, 1997 #Biochem 36 9340-9348]. […] The solutions were stored at −20° C. between measurements.
The final concentration of DMSO in the assay sample is adjusted to 3.3%. The rate of hydrolysis is corrected for inner filter effects according to published procedures. [Liu, 1999 Analytical Biochemistry 267 331-335]. […] A minimum of two replicates are performed for all measurements.

| SMILES | EC50 [1] [nM] | Ki [2] [nM] |
| --- | --- | --- |
| COc1ccc2c(O[C@@H]3C[C@H]4C(=O)N[C@]5(C(=O)NS(=O)(=O)C6CC6)CC5/C=C\CCCCN(N(C)C)C(=O)[C@@H]4C3)cc(-c3ccccc3)nc2c1 (stereo partly shown) [Example 89, Cyclopropanesulphonic acid [13-dimethylamino-17-(7-methoxy-2-phenyl-quinolin-4-yloxy)-2,14-dioxo-3,13-diaza-tricyclo[13.3.0.0*4,6*]octadec-7-ene-4-carbonyl]-amide] | 0.5 to 49 | 0.1 to 4.9 |
| COc1ccc2c(O[C@@H]3C[C@H]4C(=O)N[C@]5(C(=O)O)CC5/C=C\CCCCN(N(C)C)C(=O)[C@@H]4C3)cc(-c3ccccc3)nc2c1 (stereo partly shown) [Example 88, 13-Dimethylamino-17-(7-methoxy-2-phenyl-quinolin-4-yloxy-2,14-dioxo-3,13-diaza-tricyclo[13.3.0.0*4,6*]octadec-7-ene-4-carboxylic acid] | 1000 to 10000 | 100 to 2000 |

— patent publication US7700552B2, “Macrocyclic inhibitors of hepatitis C virus” (Medivir AB, priority 2005, dated 2010)
